# Data reported in US20070037873A1, “Airway remodeling treatments” (priority 2005, published 2007).
# Experiments:
# MMP-1 = MMP-1 mRNA Northern blot in stimulated FLS cells; format: cell-based, human; details: FLS treated 60 minutes with AjA, then 10 ng/mL TNFα+1 ng/mL GMCSE for 4 hours; FIG. 4
# Method: Human fibroblast-like synovial cells (FLS) were obtained from synovial tissue or synovial fluid, and grown to confluence in 6 well tissue culture plates. Cells were treated or not for 60 minutes with AjA, then stimulated with 10 ng/mL TNFα+1 ng/mL GMCSE for 4 hours. MMP-1 mRNA content measured by Northern blot analysis.
# Cells were harvested and resuspended in TRIZOL® solution (GIBCO-BRL) to extract total cellular RNA. The RNA was resuspended in diethylpyrocarbonate (DEPC)-treated water. Total RNA (15 μg) was separated by electrophoresis in 1% agarose/17.6% formaldehyde gels. The RNA was transferred overnight from the denaturing gel onto Hybond-N^+ (Amersham Pharmacia Biotech Inc., Piscataway, N.J.) by capillary action using […] buffer ([…]). The RNA was cross-linked to the filter by ultraviolet irradiation for 20 seconds using a UV Crosslinker (Spectronics Corporation, Westbury, N.Y.) and the blots were hybridized with a solution of 5×SSC, 5× Denhardt's solution, 0.5% SDS, and 10 mg/ml sonicated salmon sperm DNA for 5 hours at 65° C., and 10^7 cpm/ml radio-labeled cDNA generated by random priming with ^32P-dCTP ([…], NEN, Boston, Mass.). Probes specific for the MMP-1 gene were heat denatured and added to the prehybridization buffer for hybridization overnight at 65° C. […]
# NF-KB = test: EMSA of NF-KB binding in nuclear extracts of FLS cells; format: cell-based, human; details: 10 μM ajulemic acid for 1 hour
# From the text: Human fibroblast-like synovial (FLS) cells were isolated from synovial tissue or synovial fluid of patients with inflammatory arthritis (4 RA, 1 psoriatic arthritis) essentially as described (Stebulis et al., J. Rheumatol. 32:301-06, 2005). Briefly, synovial tissue obtained at the time of joint replacement surgery was minced and plated in tissue culture dishes with growth medium (MEM with 15% FBS, 1% penicillin/streptomycin solution, 1% nonessential amino acids). Synovial fluid was collected in heparinized syringes, then centrifuged at 1200 rpm for 15 min. The cell pellet was resuspended in growth medium, then plated in tissue culture flasks. After 2-4 days, primary cultures were washed with PBS to remove tissue fragments and nonadherent cells. FLS were incubated at 37° C. under 5% CO2 and passaged to 6-well tissue culture plates (split 1:3) when they reached confluence. Passages 2 through 8 were used for experiments.
# Experiments were done on FLS rested overnight in low serum medium (MEM/2% FBS). Medium was replaced before beginning the experiments. Cells were treated with 10 μM ajulemic acid for 1 hour then stimulated with 1 ng/ml TNF-α or left unstimulated. Controls were vehicle (0.3% DMSO) treated cells. […] Gels were scanned and analyzed using ADOBE® software for PC.
# human ASM cells = test: Fura-2 calcium transients in agonist-stimulated ASM cells; format: cell-based; details: ajulemic acid 10 μM or 20 μM for 10 minutes, F340/F380 ratio, p<0.01 versus control
# Method: Human airway smooth muscle (ASM) cells were obtained and passaged as described in Example 1. Subconfluent ASM cells in 96-well plates were washed 3 times in a modified Kreb-Ringer-Henseleit solution (KRH) containing 115 mM NaCl, 5 mM KCl, 1 mM KH2PO4, 1 mM MgSO4, 25 mM N-2-hydroxyethylpiperazine-N′-2-ethanesulfonic acid (HEPES), 15 mM glucose and 2 mM CaCl2. Cells were incubated in 1.0 μM fura 2-AM and pluronic F-127 (0.004%) for 60 minutes at room temperature. See, e.g., Wang et al., Am. J. Phys.; 272:C1151-C1159, 1997. After washing 3 times with KRH, cells were covered with 200 μl KRH and placed on the microscope stage. Reagents were added directly to the wells during calcium recordings. Fura 2-AM and F-127 were from Molecular Probes, Inc. (Eugene, Oreg.). Other chemicals were from Sigma (St. Louis, Mo.).
# Fluorescence was induced using computer-controlled 337 and 380 nm UV light generated by a nitrogen laser and a nitrogen laser-pumped dye laser, respectively (Laser Science, Franklin, Mass.). See, e.g., Ethier et al., Cell Calcium, 32:31-38 2002. […]
# Background from a cell free region of the cover glass was subtracted prior to data acquisition and then an 11×11 pixels area was selected over each cell. […] Fluorescence emissions stimulated by alternating pulses of ˜340 and 380 nm light were recorded and their ratios plotted. […]
# [1] = test system: Human airway smooth muscle (ASM) cells; test: Human ASM cell proliferation (MTT) after TNF-α stimulation; format: cell-based; details: ajulemic acid 0-30 μmoles, 60 minutes, then 1 ng/ml TNF-α for 48 hours, FIG. 1
# Method: Human airway smooth muscle (ASM) (also known as human bronchial smooth muscle (HBSM)) cells were obtained cryopreserved from Cambrex Bio Science (Walkersville, Md.) at passage 3. See, Ethier and Madison, Cell Calcium, 32:31-38 (2002) and Zhong et al., Am. J Respir Cell Mol. Biol., 30:118-125 (2004). Cultures were characterized as smooth muscle cells by positive immunostaining for smooth muscle actin and negative for Factor VIII. Cells were seeded and grown in smooth muscle basal medium (SMBM, Cambrex Bio Science) supplemented with 5% fetal bovine serum, 5 μg/ml insulin, 0.5 ng/ml epidermal growth factor, 2 ng/ml fibroblast growth factor, gentamicin, and amphotericin. Cells were maintained at 37° C. in a humidified atmosphere (5% CO2), fed every 48 hours, and passaged when confluent. Shortly after passaging, ajulemic acid (synthesized by Organix, Inc., Woburn, Mass.) was added to growth media to a concentration of 0-30 μmoles. Cells were incubated for 60 minutes, and then stimulated with 1 ng/ml TNF-α for 48 hours. After 48 hours, cell proliferation was evaluated using the Cell Proliferation Kit I (MTT) from Roche Diagnostics (Indianapolis, Ind.), which provides a measure of cell number as a function of optical density.
# IK-B = test: Western blot of IK-B phosphorylation in TNF-α stimulated FLS cells; format: cell-based, human; details: FIG. 3
# Method: FLS cells were collected from human synovial fluid in heparinized syringes, then centrifuged at 1200 rpm (260 g) for 15 minutes. FLS cells are used herein as models of pulmonary fibroblasts and/or myofibroblasts. The resulting cell pellet was resuspended in 7 ml of growth medium (Dulbecco's Minimal Essential Medium with 15% heat-inactivated fetal bovine serum (FBS), 1% nonessential amino acids, 1% penicillin/streptomycin solution) and plated in 25 ml tissue culture flasks. Cultures were incubated at 37° C., under 5% CO2 for 24 to 48 hours after which medium was aspirated and cultures were washed with PBS to remove nonadherent cells. Growth medium was replaced every 3 to 4 days. After 10 to 14 days, adherent cells were harvested by trypsinization, washed, and transferred to 6-well tissue culture plates in fresh growth medium. FLS cells were passaged (split 1:3) at confluence, generally every 10 to 14 days.
# FLS cells at passage 2 through 6 were (i) untreated, (ii) treated with 1-30 μM of ajulemic acid in growth media, (iii) treated with 1 ng/ml of TNF-α in growth media, or (iv) treated with a combination of 1-30 μM of ajulemic acid and 1 ng/ml TNF-α for 10 minutes or 45 minutes. Cells were harvested and washed several times with PBS. Whole cell lysates were prepared in hypotonic HEPES buffer (7.45 g KCl/100 ml H2O; 3.80 g EGTA/100 ml H2O;0.87 g PMSF/500 ml H2O; 1.54 g DTT/10 ml H2O). […]
smiles,measurement,setting,value
"CCCCCCC(C)(C)c1cc(O)c2c(c1)OC(C)(C)[C@@H]1CC=C(C(=O)O)C[C@@H]21 [ajulemic acid, 1′,1′dimethylheptyl-Δ8-THC-11-oic acid]","MMP-1 expression (mRNA, Northern blot)",MMP-1,downregulates MMP-1 expression in a dose-dependent manner
same,reduction of TNF-α induced NF-KB activation (binding to oligonucleotide corresponding to an NF-KB binding site),"NF-KB; then 1 ng/ml TNF-α, extracts 45 minutes after stimulation, lane 4 vs. lane 3",approximately 75%
same,nuclear binding of NF-KB in resting FLS,"NF-KB; unstimulated FLS, EMSA, lane 2 vs. lane 1",not altered
same,"calcium transients, histamine stimulated",human ASM cells; histamine,suppressed calcium transients
same,"calcium transients, thrombin stimulated",human ASM cells; thrombin,suppressed calcium transients
same,human ASM cell proliferation,[1],suppressed human ASM cell proliferation in a dose-dependent manner
same,expression of the non-phosphorylated form of IK-B,"IK-B; 1-30 μM ajulemic acid with 1 ng/ml TNF-α, after 45 minutes",dramatically increased expression of the non-phosphorylated form of IK-B
same,phosphorylation of IK-B (phosphor-IK-B),"IK-B; 1-30 μM ajulemic acid, 10 minutes after stimulation with 1 ng/ml TNF-α",prevented phosphorylation of IK-B
